The source of these data is US8822432B2, “Equol production accelerating composition” (Unitika Ltd., priority 2006, dated 2014).

Molecules are shown by their SMILES.

This experiment relates to equol production in the intestines. Description: Equol production accelerating effect in rats: equol concentration in blood plasma after 5 weeks of sample-mixed feed. In kind it is in vivo, SD rats. As to conditions: week 5. From the text: Calcium lactobionate (manufactured by Sigma Aldrich) was mixed with a rat powder feed (CRF-1, manufactured by Oriental Yeast Co., Ltd.) to a concentration of 0, 0.5 or 3.0% by weight. Also, as comparative controls, a 1.5% by weight difructose-dianhydride III (DFA-III) (manufactured by Wako Pure Chemical Industries, Ltd)-mixed powder feed and a 1.5% by weight fructo-oligosaccharide (FOS) (manufactured by Wako Pure Chemical Industries, Ltd)-mixed powder feed were used.
Acclimatization rearing of 3 animals per group of 5-week-old SD rats (manufactured by Clea Japan, Inc.) was carried out for 1 week by allowing to freely ingest the powder feed CRF-1 and water. The time of completion of the acclimatization rearing was regarded as the […] Starting from the week 0, respective groups were allowed to freely ingest the calcium lactobionate-mixed powder feed prepared in the above. The control groups were allowed to ingest a general powder feed.
The conjugated soybean isoflavone presenting in the rat blood plasma was converted into its free state using β-glucuronidase, and then equol was measured using an LC/MS/MS system. As the instruments for analysis, HP1100 Series, Agilent Technologies, was used in the LC, and Quattro-Ultima, Micromass was used in the MS/MS. […]

Regarding `O=C([O-])[C@H](O)[C@@H](O)[C@H](O[C@@H]1O[C@H](CO)[C@H](O)[C@H](O)[C@H]1O)[C@H](O)CO.O=C([O-])[C@H](O)[C@@H](O)[C@H](O[C@@H]1O[C@H](CO)[C@H](O)[C@H](O)[C@H]1O)[C@H](O)CO.[Ca+2]` [calcium lactobionate, Calcium lactobionate], under “calcium lactobionate-mixed powder feed (0.5 or 3.0% by weight), free ingestion”, the “equol concentration in blood plasma, times of the control group” value is 2 to 3 times of the control group. For the setting “mixed powder feed”, the “equol concentration in blood plasma compared to the DFA-III and fructo-oligosaccharide” value is reported as “high”.
